Reference: US9328099B2, “Cyanomethylpyrazole carboxamides as janus kinase inhibitors” (Merck Sharp & Dohme Corp., priority 2011, dated 2016)
Where two headings read alike, the source gives them in different places.

Assays:
[1] = molecular target: JAK2 (Homo sapiens (Human), UniProt O60674); assay: Jak Biochemical HTRF Assay, JAK2
Description: (§1) Jak Biochemical HTRF Assay Protocol
(§2) Subsequent reagent additions employed an Agilent Bravo.

[2] = molecular target: JAK1 (Homo sapiens (Human), UniProt P23458); assay: Jak Biochemical HTRF Assay, JAK1; conditions: read-out: JAK1 IC50
Description: as §1, §2

[3] = HTRF biochemical assay, GST-tagged catalytic domain, top concentration tested […]

JAK1, sequence (P23458 875-1153): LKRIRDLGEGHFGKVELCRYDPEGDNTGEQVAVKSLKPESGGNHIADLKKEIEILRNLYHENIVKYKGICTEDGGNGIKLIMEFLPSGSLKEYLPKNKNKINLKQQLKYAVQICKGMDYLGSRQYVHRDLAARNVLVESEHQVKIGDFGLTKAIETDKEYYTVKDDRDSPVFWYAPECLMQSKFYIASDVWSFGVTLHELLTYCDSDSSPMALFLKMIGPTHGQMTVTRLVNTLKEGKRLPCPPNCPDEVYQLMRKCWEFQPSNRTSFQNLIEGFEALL
JAK2, sequence (O60674 849-1124): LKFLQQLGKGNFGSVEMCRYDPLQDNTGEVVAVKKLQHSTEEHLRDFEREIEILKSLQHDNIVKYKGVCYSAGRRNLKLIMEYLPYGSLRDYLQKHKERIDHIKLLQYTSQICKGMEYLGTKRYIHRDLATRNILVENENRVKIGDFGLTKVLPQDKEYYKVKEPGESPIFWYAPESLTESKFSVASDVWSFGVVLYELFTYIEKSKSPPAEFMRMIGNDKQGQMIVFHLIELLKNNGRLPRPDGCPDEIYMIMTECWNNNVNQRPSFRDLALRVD

SMILES | IC50 [1, 3] [nM] | IC50 [2, 3] [nM] | IC50 [1] [nM] | IC50 [2] [nM]
N#CCC1(n2cc(C(N)=O)c(Nc3ccnc(F)c3)n2)CCC(Nc2ccc(F)c(F)c2)CC1 (stereo not drawn) [Example 40-36, Cis or trans 1-{1-(cyanomethyl)-4-[(3,4-difluorophenyl)amino]cyclohexyl}-3-[(2-fluoropyridin-4-yl)amino]-1H-pyrazole-4-carboxamide] | > 1500 | 65 |  | 
N#CCC1(n2cc(C(N)=O)c(Nc3ccnc(F)c3)n2)CCC(Nc2ccc(F)cc2F)CC1 (stereo not drawn) [Example 40-37, Cis or trans 1-{1-(cyanomethyl)-4-[(2,4-difluorophenyl)amino]cyclohexyl}-3-[(2-fluoropyridin-4-yl)amino]-1H-pyrazole-4-carboxamide] | 506 | 16 |  | 
N#CCC1(n2cc(C(N)=O)c(Nc3ccc(F)cc3)n2)CCC(Nc2cccnc2)CC1 (stereo not drawn) [Example 40-39, Cis or trans 1-[1-(cyanomethyl)-4-(pyridin-3-ylamino)cyclohexyl]-3-[(4-fluorophenyl)amino]-1H-pyrazole-4-carboxamide] | 760 | 30 |  | 
N#CCC1(n2cc(C(N)=O)c(Nc3ccnc(F)c3)n2)CCC(Nc2ccc(F)cc2)CC1 (stereo not drawn) [Example 40-40, Cis or trans 1-{1-(cyanomethyl)-4-[(4-fluorophenyl)amino]cyclohexyl}-3-[(2-fluoropyridin-4-yl)amino]-1H-pyrazole-4-carboxamide] | 9 | 0.2 |  | 
N#CCC1(n2cc(C(N)=O)c(Nc3ccc(F)cc3)n2)CCC(N2CCC(O)CC2)CC1 (stereo not drawn) [Example 40-41, Cis or trans 1-[1-(cyanomethyl)-4-(4-hydroxypiperidin-1-yl)cyclohexyl]-3-[(4-fluorophenyl)amino]-1H-pyrazole-4-carboxamide] | > 1500 | 584 |  | 
N#CCC1(n2cc(C(N)=O)c(Nc3ccc(S(=O)(=O)C(F)F)cc3)n2)CCC(N2CCC(F)(F)CC2)CC1 (stereo not drawn) [Example 40-42, Cis or trans 1-[1-(cyanomethyl)-4-(4,4-difluoropiperidin-1-yl)cyclohexyl]-3-({4-[(difluoromethyl)sulfonyl]phenyl}amino)-1H-pyrazole-4-carboxamide] | 775 | 64 |  | 
N#CCC1(n2cc(C(N)=O)c(Nc3ccc(S(=O)(=O)C(F)F)cc3)n2)CCC(N2CCC(O)CC2)CC1 (stereo not drawn) [Example 40-43, Cis or trans 1-[1-(cyanomethyl)-4-(4-hydroxypiperidin-1-yl)cyclohexyl]-3-({4-[(difluoromethyl)sulfonyl]phenyl}amino)-1H-pyrazole-4-carboxamide] | 14 | 0.3 |  | 
N#CCC1(n2cc(C(N)=O)c(Nc3ccc(S(=O)(=O)C(F)F)cc3)n2)CCC(Nc2cccc(O)c2)CC1 (stereo not drawn) [Example 40-44, Cis or trans 1-{1-(cyanomethyl)-4-[(3-hydroxyphenyl)amino]cyclohexyl}-3-({4-[(difluoromethyl)sulfonyl]phenyl}amino)-1H-pyrazole-4-carboxamide] |  |  | 0.8 | 0.1
N#CCC1(n2cc(C(N)=O)c(Nc3ccnc(F)c3)n2)CCC(Nc2ccc(Cl)cc2)CC1 (stereo not drawn) [Example 40-45, Cis or trans 1-{4-[(4-chlorophenyl)amino]-1-(cyanomethyl)cyclohexyl}-3-[(2-fluoropyridin-4-yl)amino]-1H-pyrazole-4-carboxamide] | 770 | 38 |  | 
N#CCC1(n2cc(C(N)=O)c(Nc3ccnc(F)c3)n2)CCC(Nc2ccc(F)cc2)CC1 (stereo not drawn) [Example 40-47, Cis or trans 1-{1-(cyanomethyl)-4-[(4-fluorophenyl)amino]cyclohexyl}-3-[(2-fluoropyridin-4-yl)amino]-1H-pyrazole-4-carboxamide] | > 1500 | 215 |  | 
N#CCC1(n2cc(C(N)=O)c(Nc3ccc(F)cc3)n2)CCC(N2CCc3ccccc32)CC1 (stereo not drawn) [Example 40-49, Cis or trans 1-[1-(cyanomethyl)-4-(2,3-dihydro-1H-indol-1-yl)cyclohexyl]-3-[(4-fluorophenyl)amino]-1H-pyrazole-4-carboxamide] | 137 | 5 |  | 
N#CCC1(n2cc(C(N)=O)c(Nc3ccnc(F)c3)n2)CCC(NC2CCCCC2)CC1 (stereo not drawn) [Example 40-51, Cis or trans 1-[1-(cyanomethyl)-4-(cyclohexylamino)cyclohexyl]-3-[(2-fluoropyridin-4-yl)amino]-1H-pyrazole-4-carboxamide] | > 1500 | 598 |  | 
N#CCC1(n2cc(C(N)=O)c(Nc3ccc(F)cc3)n2)CCC(Nc2ccc(Cl)cc2)CC1 (stereo not drawn) [Example 40-52, Cis or trans 1-{4-[(4-chlorophenyl)amino]-1-(cyanomethyl)cyclohexyl}-3-[(4-fluorophenyl)amino]-1H-pyrazole-4-carboxamide] | 20 | 0.6 |  | 
N#CCC1(n2cc(C(N)=O)c(Nc3ccc(F)cc3)n2)CCC(Nc2ccc(Cl)cc2)CC1 (stereo not drawn) [Example 40-53, Cis or trans 1-{4-[(4-chlorophenyl)amino]-1-(cyanomethyl)cyclohexyl}-3-[(4-fluorophenyl)amino]-1H-pyrazole-4-carboxamide] | > 1500 | 400 |  | 
N#CCC1(n2cc(C(N)=O)c(Nc3ccnc(F)c3)n2)CCC(N2CCc3ccccc32)CC1 (stereo not drawn) [Example 40-54, Cis or trans 1-[1-(cyanomethyl)-4-(2,3-dihydro-1H-indol-1-yl)cyclohexyl]-3-[(2-fluoropyridin-4-yl)amino]-1H-pyrazole-4-carboxamide] | 24 | 0.9 |  | 
N#CCC1(n2cc(C(N)=O)c(Nc3ccnc(F)c3)n2)CCC(Nc2cccc(F)c2)CC1 (stereo not drawn) [Example 40-55, Cis or trans 1-{1-(cyanomethyl)-4-[(3-fluorophenyl)amino]cyclohexyl}-3-[(2-fluoropyridin-4-yl)amino]-1H-pyrazole-4-carboxamide] | 409 | 13 |  | 
N#CCC1(n2cc(C(N)=O)c(Nc3ccc(S(=O)(=O)C(F)F)cc3)n2)CCC(NC2CCCCC2)CC1 (stereo not drawn) [Example 40-57, Cis or trans 1-[1-(cyanomethyl)-4-(cyclohexylamino)cyclohexyl]-3-({4-[(difluoromethyl)sulfonyl]phenyl}amino)-1H-pyrazole-4-carboxamide] | > 1500 |  |  | 415
N#CCC1(n2cc(C(N)=O)c(Nc3ccc(F)cc3)n2)CCC(Nc2ccccc2F)CC1 (stereo not drawn) [Example 40-58, Cis or trans 1-{1-(cyanomethyl)-4-[(2-fluorophenyl)amino]cyclohexyl}-3-[(4-fluorophenyl)amino]-1H-pyrazole-4-carboxamide] | 7 | 0.2 |  | 
N#CCC1(n2cc(C(N)=O)c(Nc3ccc(F)cc3)n2)CCC(Nc2ccccc2F)CC1 (stereo not drawn) [Example 40-60, Cis or trans 1-{1-(cyanomethyl)-4-[(2-fluorophenyl)amino]cyclohexyl}-3-[(4-fluorophenyl)amino]-1H-pyrazole-4-carboxamide] | 758 | 45 |  | 
N#CCC1(n2cc(C(N)=O)c(Nc3ccnc(F)c3)n2)CCC(Nc2ccc(Cl)cc2)CC1 (stereo not drawn) [Example 40-61, Cis or trans 1-{4-[(4-chlorophenyl)amino]-1-(cyanomethyl)cyclohexyl}-3-[(2-fluoropyridin-4-yl)amino]-1H-pyrazole-4-carboxamide] | 3 | 0.06 |  | 
N#CCC1(n2cc(C(N)=O)c(Nc3ccnc(F)c3)n2)CCC(Nc2cccc(Cl)c2)CC1 (stereo not drawn) [Example 40-62, Cis or trans 1-{4-[(3-chlorophenyl)amino]-1-(cyanomethyl)cyclohexyl}-3-[(2-fluoropyridin-4-yl)amino]-1H-pyrazole-4-carboxamide] | 832 | 38 |  | 
N#CCC1(n2cc(C(N)=O)c(Nc3ccnc(F)c3)n2)CCC(Nc2cc(F)ccc2F)CC1 (stereo not drawn) [Example 40-63, Cis or trans 1-{1-(cyanomethyl)-4-[(2,5-difluorophenyl)amino]cyclohexyl}-3-[(2-fluoropyridin-4-yl)amino]-1H-pyrazole-4-carboxamide] | 1 | 0.03 |  | 
N#CCC1(n2cc(C(N)=O)c(Nc3ccnc(F)c3)n2)CCC(Nc2cccc(F)c2)CC1 (stereo not drawn) [Example 40-64, Cis or trans 1-{1-(cyanomethyl)-4-[(3-fluorophenyl)amino]cyclohexyl}-3-[(2-fluoropyridin-4-yl)amino]-1H-pyrazole-4-carboxamide] | 2 | 0.05 |  | 
N#CCC1(n2cc(C(N)=O)c(Nc3ccc(S(=O)(=O)C(F)F)cc3)n2)CCC(NC2CCOCC2)CC1 (stereo not drawn) [Example 40-66, Cis or trans 1-[1-(cyanomethyl)-4-(tetrahydro-2H-pyran-4-ylamino)cyclohexyl]-3-({4-[(difluoromethyl)sulfonyl]phenyl}amino)-1H-pyrazole-4-carboxamide] | > 1500 | 344 |  | 
N#CCC1(n2cc(C(N)=O)c(Nc3ccc(S(=O)(=O)C(F)F)cc3)n2)CCC(N2CCC(O)CC2)CC1 (stereo not drawn) [Example 40-67, Cis or trans 1-[1-(cyanomethyl)-4-(4-hydroxypiperidin-1-yl)cyclohexyl]-3-({4-[(difluoromethyl)sulfonyl]phenyl}amino)-1H-pyrazole-4-carboxamide] | 773 | 37 |  | 
N#CCC1(n2cc(C(N)=O)c(Nc3ccc(F)cc3)n2)CCC(NCC2CC2)CC1 (stereo not drawn) [Example 40-69, Cis or trans 1-{1-(cyanomethyl)-4-[(cyclopropylmethyl)amino]cyclohexyl}-3-[(4-fluorophenyl)amino]-1H-pyrazole-4-carboxamide] | 667 | 9 |  | 
N#CCC1(n2cc(C(N)=O)c(Nc3ccc(F)cc3)n2)CCC(N2CCC(F)(F)CC2)CC1 (stereo not drawn) [Example 40-70, Cis or trans 1-[1-(cyanomethyl)-4-(4,4-difluoropiperidin-1-yl)cyclohexyl]-3-[(4-fluorophenyl)amino]-1H-pyrazole-4-carboxamide] | 9 | 0.2 |  | 
COCCNC1CCC(CC#N)(n2cc(C(N)=O)c(Nc3ccc(F)cc3)n2)CC1 (stereo not drawn) [Example 40-71, Cis or trans 1-{1-(cyanomethyl)-4-[(2-methoxyethyl)amino]cyclohexyl}-3-[(4-fluorophenyl)amino]-1H-pyrazole-4-carboxamide] | 814 | 24 |  | 
